Laboratory results published in patent publication EP4813463A2, “TYK2 INHIBITORS AND COMPOSITIONS AND METHODS THEREOF” (Lynk Pharmaceuticals Co. Ltd., priority 2023, dated 2024).

Each compound was assayed against T1, TYK2-JH2 domain (Homo sapiens, UniProt P29597) (assay: Binding activity test for JH2 domain of TYK2 (Tb-antibody/tracer FRET)). Conditions: JH2 domain enzyme; 60 min at 25°C, then 4°C overnight; read-out: TYK2 JH2 Binding IC50.
T1 construct: JAK1-JH2 domain or TYK2-JH2 domain enzyme in assay buffer
T1 sequence (P29597 589-875 limits assumed): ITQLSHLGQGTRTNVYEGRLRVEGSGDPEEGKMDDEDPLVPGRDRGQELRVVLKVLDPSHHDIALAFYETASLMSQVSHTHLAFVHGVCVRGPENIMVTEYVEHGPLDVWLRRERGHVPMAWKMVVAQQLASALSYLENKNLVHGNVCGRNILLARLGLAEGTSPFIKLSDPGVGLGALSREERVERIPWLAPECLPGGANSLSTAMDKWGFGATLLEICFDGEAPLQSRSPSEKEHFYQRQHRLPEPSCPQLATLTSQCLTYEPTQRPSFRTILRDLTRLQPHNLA
Method: Binding Activity test for JH2 domain of JAK1 and TYK2 […] Add 8μL/well in echo source plate, echo will add 75nL/well with 3-fold serial dilution for 11 points in assay plate. 75nL DMSO for high control and low control. […] For low control, add 5μL/well assay buffer. And then spin down at 1000rpm and centrifuge for 30 seconds. After enzyme system prepared, add 5μL of Tb-antibody solution into each well of assay plate. Spin down at 1000 rpm and centrifuge for 30sec. After Tb-antibody added, also add 5μL of tracer into the assay plate. Spin down at 1000rpm and centrifuge for 30sec. Incubate for […] at 25°C firstly and then continue to incubate the plate at 4°C overnight. Read by envision in FRET mode. The Luminescence value was recorded by a multi-label reader Envision (PerkinElmer). […] Table 2. IC50 on JH2 domain activity (nM)
With `COC(=O)c1cnc(NC(=O)C2CC2)cc1Nc1nn(C)c2cnc(C(OC)C(F)(F)F)c(OC)c12` (centres unmarked) [Example 138, Methyl 6-(cyclopropanecarbonylamino)-4-[[4-methoxy-1-methyl-5-(2,2,2-trifluoro-1-methoxy-ethyl)pyrazolo[3,4-c]pyridin-3-yl]amino]pyridine-3-carboxylate] the IC50 was 1.22 nM. `COC(=O)c1cnc(NC(=O)C2CC2)cc1Nc1nn(C)c2cccc(OC)c12` [Example 146, Methyl 6-(cyclopropanecarboxamido)-4-((4-methoxy-1-methyl-1H-indazol-3-yl)amino)nicotinate] was tested, and the IC50 was 9.8 nM. Work on `CCC(O)c1cnc(NC(=O)C2CC2)cc1Nc1nn(C)c2ccc([C@H](OC)C(F)(F)F)c(OC)c12` (stereo partly drawn) [Example 143, N-(5-(1-hydroxypropyl)-4-((4-methoxy-1-methyl-5-((S)-2,2,2-trifluoro-1-methoxyethyl)-1H-indazol-3-yl)amino)pyridin-2-yl)cyclopropanecarboxamide] yielded an IC50 of 34.7 nM. For `COC(=O)c1c(Nc2nn(C)c3ccc(C(OC)C(F)(F)F)c(OC)c23)cc(NC(=O)C2CC2)nc1F` (single isomer, unassigned) [Example 98A, Methyl (R*)-6-(cyclopropanecarboxamido)-2-fluoro-4-((4-methoxy-1-methyl-5-(2,2,2-trifluoro-1-methoxyethyl)-1H-indazol-3-yl)amino)nicotinate], the IC50 was > 298 nM. `[2H]C([2H])([2H])NC(=O)c1cnc(NC(=O)C2CC2)cc1Nc1cnn2ccc(C)c(NC)c12` [Example 97, 6-(Cyclopropanecarbonylamino)-4-[[5-methyl-4-(methylamino)pyrazolo [1,5-a]pyridin-3-yl]amino]-N-(trideuteriomethyl)pyridine-3-carboxamide] showed an IC50 of 2.37 nM. Work on `COC(=O)c1cnc(NC(=O)C2CC2)cc1Nc1ncn2ccc(C(OC)C(F)(F)F)c(OC)c12` (centres unmarked) [Example 110, Methyl 6-(cyclopropanecarboxamido)-4-((8-methoxy-7-(2,2,2-trifluoro-1-methoxyethyl)imidazo[1,5-a]pyridin-1-yl)amino)nicotinate] yielded an IC50 of 2.47 nM. `COC(=O)c1cnc(NC(=O)C2CC2)cc1Nc1nn(CC#N)c2ccc(C(OC)C(F)(F)F)c(OC)c12` (centres unmarked) [Example 134, Methyl 4-((1-(cyanomethyl)-4-methoxy-5-(2,2,2-trifluoro-1-methoxyethyl)-1H-indazol-3-yl)amino)-6-(cyclopropanecarboxamido)nicotinate] gave an IC50 of 1.52 nM. Work on `COC(=O)c1cnc(NC(=O)C2CC2)cc1Nc1nn(C2CC2)c2ccc(C(OC)C(F)(F)F)c(OC)c12` (centres unmarked) [Example 119, Methyl 6-(cyclopropanecarboxamido)-4-((1-cyclopropyl-4-methoxy-5-(2,2,2-trifluoro-1-methoxyethyl)-1H-indazol-3-yl)amino)nicotinate] yielded an IC50 of 0.308 nM. Compound `COC(=O)c1c(Nc2nn(C)c3ccc(C(OC)C(F)(F)F)c(OC)c23)cc(NC(=O)C2CC2)nc1F` (single isomer, unassigned) [Example 98B, Methyl (S*)-6-(cyclopropanecarboxamido)-2-fluoro-4-((4-methoxy-1-methyl-5-(2,2,2-trifluoro-1-methoxyethyl)-1H-indazol-3-yl)amino)nicotinate] has an IC50 of 3.88 nM. Compound `COC(=O)c1cnc(NC(=O)C2CC2)cc1Nc1nn(C)c2ccc(C(OC)C(C)C)c(OC)c12` (centres unmarked) [Example 118, Methyl 6-(cyclopropanecarboxamido)-4-((4-methoxy-5-(1-methoxy-2-methylpropyl)-1-methyl-1H-indazol-3-yl)amino)nicotinate] has an IC50 of 0.943 nM. In the case of `[2H]C([2H])([2H])OC(c1ccc2c(c(Nc3cc(NC(=O)C4CC4)ncc3C(=O)OC)nn2CCOC)c1OC)C(F)(F)F` (single isomer, unassigned) [Example 157B, Methyl (R*)-6-(cyclopropanecarboxamido)-4-((4-methoxy-1-(2-methoxyethyl)-5-(2,2,2-trifluoro-1-methoxyethyl)-1H-indazol-3-yl)amino)nicotinate], the IC50 is reported as 1.41 nM.
